Test system: T1, Gp Hcdh (Unk-9; G. pamelaeae HCA dehydroxylase)
T1 construct: native untagged enzyme purified from G. pamelaeae 3C grown with HCA (ammonium sulfate, HIC, AEC, SEC); two subunits; catalytic subunit 770 aa; one Mo per protein (bis-MGD); with Hydrocaffeic acid dehydroxylase accessory subunit
Experiment: continuous spectrophotometric assay, methyl viologen oxidation at […] nm, Michaelis-Menten fit of initial rates
Type: biochemical, Gordonibacter pamelaeae
Settings: 100 nM enzyme, anaerobic, 50 mM MOPS pH 7.0, 300 mM NaCl, 200 uM methyl viologen, 100 uM sodium dithionite, HCA 0.0625-4 mM

SMILES: O=C(O)CCc1ccc(O)c(O)c1 [HCA, 3,4-dihydroxyhydrocinnamic acid]
- Km: 240 µM
